In data set [1] the target is T1, TLR7 (Homo sapiens, UniProt Q9NYK1).
T1 construct: Peripheral blood mononuclear cells (PBMCs) were obtained from buffy coats from healthy adult donors; endogenous in cells; host or cells: primary human PBMCs from healthy donor buffy coats (TLR7 expressed by pDCs)
T1 sequence (Q9NYK1 27-1049): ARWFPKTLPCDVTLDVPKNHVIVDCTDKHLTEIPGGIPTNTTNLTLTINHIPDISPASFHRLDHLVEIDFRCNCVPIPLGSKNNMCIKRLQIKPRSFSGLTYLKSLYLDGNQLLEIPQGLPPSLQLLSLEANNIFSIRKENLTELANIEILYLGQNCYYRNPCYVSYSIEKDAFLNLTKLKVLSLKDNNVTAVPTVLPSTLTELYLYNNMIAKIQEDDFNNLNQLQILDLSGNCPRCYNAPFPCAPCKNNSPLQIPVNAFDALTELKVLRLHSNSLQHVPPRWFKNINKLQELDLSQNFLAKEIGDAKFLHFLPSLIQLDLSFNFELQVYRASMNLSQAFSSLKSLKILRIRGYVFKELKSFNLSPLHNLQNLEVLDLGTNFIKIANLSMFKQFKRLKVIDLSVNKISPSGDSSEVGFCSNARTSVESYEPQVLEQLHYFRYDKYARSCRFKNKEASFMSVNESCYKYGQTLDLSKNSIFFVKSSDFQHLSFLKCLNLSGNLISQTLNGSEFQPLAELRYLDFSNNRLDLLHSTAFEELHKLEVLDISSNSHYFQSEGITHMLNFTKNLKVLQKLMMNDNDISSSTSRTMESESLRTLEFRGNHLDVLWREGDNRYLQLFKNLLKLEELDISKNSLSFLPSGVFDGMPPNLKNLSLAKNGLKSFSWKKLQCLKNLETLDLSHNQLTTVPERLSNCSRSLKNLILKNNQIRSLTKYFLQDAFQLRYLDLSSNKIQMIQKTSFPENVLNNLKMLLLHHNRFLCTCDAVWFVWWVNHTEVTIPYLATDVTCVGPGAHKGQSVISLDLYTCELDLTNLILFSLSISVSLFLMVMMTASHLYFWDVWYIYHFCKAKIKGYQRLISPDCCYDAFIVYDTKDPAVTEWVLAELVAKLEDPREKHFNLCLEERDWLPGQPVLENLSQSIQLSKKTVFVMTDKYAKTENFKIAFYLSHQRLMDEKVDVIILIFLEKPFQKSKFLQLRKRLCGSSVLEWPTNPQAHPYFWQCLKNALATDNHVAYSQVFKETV
Put plainly: PBMC stimulation with p-L-arginine-complexed RNA ligands, IFN-α ELISA. In kind it is cell-based. The procedure: Peripheral blood mononuclear cells (PBMCs) were obtained from buffy coats from healthy adult donors. Buffy coat samples were first diluted with an equal volume of phosphate-buffered saline (PBS). Next, PBMCs were isolated via density gradient centrifugation with Lymphoprep density gradient media ([…] Technologies) and SepMate-50 tubes ([…] Technologies). Samples were centrifuged at 1000 g for 15 minutes. After centrifugation, the upper layers were collected by pouring into a new tube, diluted with PBS, and centrifuged at 450×g for 5 minutes. To lyse red blood cells, cell pellets were resuspended with 10 mL Ammonium-Chloride-Potassium (ACK) Lysis Buffer and incubated for 8 minutes at room temperature. After lysis, cells were washed with PBS and passed through two 70 μm cell strainers. Viable cell counts were determined with a Vi-CELL cell counter (Beckman Coulter). […] Guanosine was added between about 20 and about 30 minutes before the addition of poly-[…])-complexed RNA. […] After mixing by pipetting up and down, the reaction was incubated for 10 minutes, pipetted up and down again, and then added to the cells. In some experiments, RNA ligands were used at a final concentration of 0.6 μg/ml. Where indicated as “+2'3' cGMP”, 2'3' cyclic GMP purchased from eMolecules was complexed together with the RNA ligands. The final concentration of 2'3' cyclic GMP was 5 μg/ml. p-L-arginine was adjusted accordingly to keep the mass ratio of nucleic acid:p-L-arginine constant. Cell culture supernatants were collected 15-18 hours after stimulation and stored at -80° C. Cytokines in cell culture supernatants were detected with the BD OptEIA human TNF ELISA Set (BD Biosciences), and either Invitrogen IFN alpha Human Matched Antibody Pair kit (Thermo Fisher Scientific) or Human IFN Alpha Multi-Subtype ELISA Kit (PBL Assay Science). To test the effects of the RNA ligands described in Example 1 on TLR7 and TLR8 activation, PBMCs were stimulated with the RNA ligands using p-L-arginine complex delivery, delivery with DOTAP, or delivery without a carrier. Activity of TLR7 and TLR8 was assessed based on measurements of IFN-α or TNF-α by enzyme-linked immunosorbent assays (ELISA). In this setting, as depicted in FIG. 6, IFN-α induced by small RNAs is derived from TLR7 expressed by pDCs, or from RIG-I expressed by monocytes. In contrast, TNF-α secretion is derived from monocytes and serves as an indication of TLR8 activation. As shown in this figure, the p-L-arginine delivery restricts most of the activation to TLRs. First, the effects of the RNA ligands on TLR7 and TLR8 activation using p-L-arginine complex delivery were tested.
(In general: ELISA stands for enzyme-linked immunosorbent assay.)

The target in data set [2] is T1, TLR7. Description: PBMC stimulation with DOTAP-complexed RNA ligands, IFN-α ELISA. In kind it is cell-based.
For a further data set, the target named is T2, TLR8 (Homo sapiens, UniProt Q9NR97).
T2 construct: Peripheral blood mononuclear cells (PBMCs) were obtained from buffy coats from healthy adult donors; endogenous in cells; host or cells: primary human PBMCs from healthy donor buffy coats (TLR8 in monocytes)
T2 sequence (Q9NR97 27-1041): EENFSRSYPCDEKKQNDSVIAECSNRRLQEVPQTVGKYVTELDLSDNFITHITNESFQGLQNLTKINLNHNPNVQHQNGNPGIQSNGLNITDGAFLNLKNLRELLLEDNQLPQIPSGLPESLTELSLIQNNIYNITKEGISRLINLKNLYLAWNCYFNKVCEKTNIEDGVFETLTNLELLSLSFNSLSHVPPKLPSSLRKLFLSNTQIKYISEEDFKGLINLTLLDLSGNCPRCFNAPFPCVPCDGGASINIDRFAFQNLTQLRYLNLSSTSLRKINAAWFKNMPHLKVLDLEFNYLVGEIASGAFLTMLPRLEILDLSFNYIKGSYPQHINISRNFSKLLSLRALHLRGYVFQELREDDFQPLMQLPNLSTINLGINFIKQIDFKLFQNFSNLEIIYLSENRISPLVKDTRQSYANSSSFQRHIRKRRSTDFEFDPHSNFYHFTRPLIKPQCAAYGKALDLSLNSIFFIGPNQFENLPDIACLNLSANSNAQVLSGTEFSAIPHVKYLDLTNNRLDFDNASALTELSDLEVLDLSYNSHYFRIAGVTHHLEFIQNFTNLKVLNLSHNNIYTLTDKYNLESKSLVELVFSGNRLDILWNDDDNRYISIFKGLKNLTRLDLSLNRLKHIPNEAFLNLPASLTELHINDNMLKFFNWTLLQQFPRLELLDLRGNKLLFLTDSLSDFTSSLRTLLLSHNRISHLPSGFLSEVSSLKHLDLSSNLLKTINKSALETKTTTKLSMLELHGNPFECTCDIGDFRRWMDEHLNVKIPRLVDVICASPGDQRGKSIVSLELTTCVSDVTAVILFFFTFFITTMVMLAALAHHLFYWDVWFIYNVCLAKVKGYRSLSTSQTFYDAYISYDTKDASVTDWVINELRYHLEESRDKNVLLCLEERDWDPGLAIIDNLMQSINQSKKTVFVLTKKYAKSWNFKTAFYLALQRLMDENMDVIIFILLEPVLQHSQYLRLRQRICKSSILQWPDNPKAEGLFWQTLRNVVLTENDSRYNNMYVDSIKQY
Description: PBMC stimulation with DOTAP-complexed RNA ligands, TNF-α ELISA. In kind it is cell-based.

For another data set, the target named is recombinant RNase T2 (Homo sapiens, UniProt O00584).
Sequence of recombinant RNase T2 (O00584 25-256, species assumed): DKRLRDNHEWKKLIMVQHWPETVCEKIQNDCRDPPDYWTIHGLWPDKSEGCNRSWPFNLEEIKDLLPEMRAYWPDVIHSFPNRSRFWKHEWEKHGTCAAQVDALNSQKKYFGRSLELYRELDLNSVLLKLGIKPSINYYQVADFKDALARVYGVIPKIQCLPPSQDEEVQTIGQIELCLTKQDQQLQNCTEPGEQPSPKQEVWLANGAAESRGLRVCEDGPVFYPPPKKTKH
In the next data set the test system is pDC-depleted PBMCs. Put plainly: IFN-α secretion by pDC-depleted PBMCs versus PBMCs. The following applies: Lipofectamine-mediated transfection, pDC-depleted PBMCs vs PBMCs (FIG. 8). In kind it is cell-based, human. As for the experimental part:
Peripheral blood mononuclear cells (PBMCs) were obtained from buffy coats from healthy adult donors. Buffy coat samples were first diluted with an equal volume of phosphate-buffered saline (PBS). Next, PBMCs were isolated via density gradient centrifugation with Lymphoprep density gradient media ([…] Technologies) and SepMate-50 tubes ([…] Technologies). Samples were centrifuged at 1000 g for 15 minutes. After centrifugation, the upper layers were collected by pouring into a new tube, diluted with PBS, and centrifuged at 450×g for 5 minutes. To lyse red blood cells, cell pellets were resuspended with 10 mL Ammonium-Chloride-Potassium (ACK) Lysis Buffer and incubated for 8 minutes at room temperature. After lysis, cells were washed with PBS and passed through two 70 μm cell strainers. Viable cell counts were determined with a Vi-CELL cell counter (Beckman Coulter). […]
Cell culture supernatants were collected 15-18 hours after stimulation and stored at −80° C. Cytokines in cell culture supernatants were detected with the BD OptEIA human TNF ELISA Set (BD Biosciences), and either Invitrogen IFN alpha Human Matched Antibody Pair kit (Thermo Fisher Scientific) or Human IFN Alpha Multi-Subtype ELISA Kit (PBL Assay Science). […]

In the case of “CCUUCUUCUUCUUCUUCUUC (CCUUCUUCUUCUUCUUCUUC; all phosphodiester, sugars by position not given here) [ORN7009, reference compound]”, the figures for the “IFN-α secretion (TLR7 activity)” value in the data set with TLR7 [1] and with TLR7 [2] were “no or only minor IFN-α secretion” and “activated TLR8 rather than TLR7”, respectively. In addition, the “TNF-α secretion (TLR8 activity)” value with TLR8 is recorded as “activated TLR8”. In addition, the “Degradation of full RNA ligand by RNase T2” value with recombinant RNase T2 is given as “degraded more quickly”.
As to “GGGACGCUGACCCAGAAGAUCACUAGAAAUAGUAGAUCUUCUGGGUCAGCGUCCC (GGGACGCUGACCCAGAAGAUCACUAGAAAUAGUAGAUCUUCUGGGUCAGCGUCCC; RNA, phosphodiester; in vitro transcribed, further chemistry not given here) [IVT4, in vitro transcribed control, RIG-I ligand 3P-RNA]”, in the data set with pDC-depleted PBMCs, the “IFN-α secretion after pDC depletion” value is on record as “maintained after pDC depletion”.

These data come from US20240042019A1, “OPTIMIZED TLR7 LIGANDS AND USES THEREOF” (Genentech, Inc., priority 2021, published 2024).
